Columns and labels:
[1] = biological target: T1, STAT6 (Homo sapiens, UniProt P42226); assay: STAT6 Reporter Luciferase Assay (IL-13 stimulated HaCaT keratinocyte NanoLuc reporter cells); format: cell-based; conditions: STAT6 NanoLuc luciferase reporter, IL-13 stimulated HaCaT keratinocyte cells; read-out: Reporter EC50
T1 construct: stably transfected HaCaT keratinocyte cell line, which expresses NanoLuc luciferase reporter gene under the transcriptional control of the STAT6 responsive promoter; endogenous in cells; host or cells: HaCaT keratinocyte reporter cell line (stably transfected with a NanoLuc reporter)
T1 sequence (P42226 1-847): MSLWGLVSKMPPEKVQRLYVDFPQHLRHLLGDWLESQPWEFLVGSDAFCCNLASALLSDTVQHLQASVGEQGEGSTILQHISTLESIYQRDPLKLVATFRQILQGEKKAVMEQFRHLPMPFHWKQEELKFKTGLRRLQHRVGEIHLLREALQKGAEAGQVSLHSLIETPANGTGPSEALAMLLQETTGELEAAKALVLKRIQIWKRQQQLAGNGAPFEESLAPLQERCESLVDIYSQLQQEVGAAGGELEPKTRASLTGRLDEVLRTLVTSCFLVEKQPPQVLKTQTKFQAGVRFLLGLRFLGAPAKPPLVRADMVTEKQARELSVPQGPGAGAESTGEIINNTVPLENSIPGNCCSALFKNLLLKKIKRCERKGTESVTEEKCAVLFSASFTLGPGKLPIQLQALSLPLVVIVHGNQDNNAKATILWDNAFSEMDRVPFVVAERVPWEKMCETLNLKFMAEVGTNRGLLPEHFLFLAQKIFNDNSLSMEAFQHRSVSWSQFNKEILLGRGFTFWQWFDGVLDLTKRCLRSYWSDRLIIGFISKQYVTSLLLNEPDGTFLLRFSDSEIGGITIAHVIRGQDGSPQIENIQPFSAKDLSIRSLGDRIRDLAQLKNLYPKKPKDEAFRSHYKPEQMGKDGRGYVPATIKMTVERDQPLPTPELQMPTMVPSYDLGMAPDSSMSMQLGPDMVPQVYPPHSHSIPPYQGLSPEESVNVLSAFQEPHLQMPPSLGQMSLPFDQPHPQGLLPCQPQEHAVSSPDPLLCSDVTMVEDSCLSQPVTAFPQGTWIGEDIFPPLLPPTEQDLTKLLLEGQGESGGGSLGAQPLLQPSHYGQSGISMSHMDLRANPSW
Method in brief: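 Compounds were tested as 11-point, 4-fold series in duplicate, applied for 2 h at 37 °C in low-serum (2% FBS) DMEM. The cells were a stable HaCaT line with NanoLuc under a STAT6-responsive IL-13Ra2 promoter. After 4 h with 0.12 nM IL-13, Nano-Glo luminescence was measured.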

[2] = system: CCL17 secretion in peripheral human whole blood; assay: Human Whole Blood (HWB) CCL17 TR-FRET Assay (IL-13 stimulated CCL17 secretion); format: cell-based; conditions: Homo sapiens, 48 h, inhibition of CCL17 secretion in human whole blood, 10 ng/mL IL13, 48 hours
Method in brief: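 Heparin-anticoagulated human blood; cpd 11-pt 3-fold dilution, duplicate, 2 h 37 °C preinc; IL-13 10 ng/mL final, 48 h 37 °C; spin, serum CCL17 by TR-FRET ELISA, 16 h RT, 665/615 ratio; IC50.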

SMILES | EC50 [1] | IC50 [2]
CCn1nc(C(=O)NCc2ccc(NC(=O)N(C)C)cc2)c2c1CCN(c1ccc(N3CCCC3=O)cn1)C2 [Example 36, N-(4-(3,3-Dimethylureido)benzyl)-1-ethyl-5-(5-(2-oxopyrrolidin-1-yl)pyridin-2-yl)-4,5,6,7-tetrahydro-1H-pyrazolo[4,3-c]pyridine-3-carboxamide] | 24 nM | 254 nM
CC(=O)N1CCCc2cc(N3CCc4c(c(C(=O)NCc5ccc(NC(=O)N(C)C)cc5)nn4C(C)C)C3)ccc21 [Example 37, 5-(1-Acetyl-1,2,3,4-tetrahydroquinolin-6-yl)-N-(4-(3,3-dimethylureido)benzyl)-1-isopropyl-4,5,6,7-tetrahydro-1H-pyrazolo[4,3-c]pyridine-3-carboxamide] | 30 nM | 701 nM
CC(C)n1nc(C(=O)NCc2ccc(-c3ncc[nH]3)cc2)c2c1CCN(c1ccc(N3CCCC3=O)cn1)C2 [Example 38, N-(4-(1H-imidazol-2-yl)benzyl)-1-isopropyl-5-(5-(2-oxopyrrolidin-1-yl)pyridin-2-yl)-4,5,6,7-tetrahydro-1H-pyrazolo[4,3-c]pyridine-3-carboxamide] | 72 nM | 1640 nM
CC(C)n1nc(C(=O)NCc2ccc(NC(=O)N(C)C)cc2)c2c1CCN(c1ccc(C(=O)NCc3ccc(NC(=O)N(C)C)cc3)cn1)C2 [Example 39, N-(4-(3,3-Dimethylureido)benzyl)-5-(5-((4-(3,3-dimethylureido)benzyl)carbamoyl)pyridin-2-yl)-1-isopropyl-4,5,6,7-tetrahydro-1H-pyrazolo[4,3-c]pyridine-3-carboxamide] | 748 nM | > 30000 nM
CC(C)n1nc(C(=O)NCc2ccc(-c3nnc[nH]3)cc2)c2c1CCN(c1ccc(C(=O)N(C)C)cn1)C2 [Example 40, N-(4-(4H-1,2,4-triazol-3-yl)benzyl)-5-(5-(dimethylcarbamoyl)pyridin-2-yl)-1-isopropyl-4,5,6,7-tetrahydro-1H-pyrazolo[4,3-c]pyridine-3-carboxamide] | 38 nM | 324 nM
Cc1ccnn1-c1ccc(N2CCc3c(c(C(=O)NCc4ccc(NC(=O)N(C)C)cc4)nn3C(C)C)C2)nc1 [Example 41, N-(4-(3,3-Dimethylureido)benzyl)-1-isopropyl-5-(5-(5-methyl-1H-pyrazol-1-yl)pyridin-2-yl)-4,5,6,7-tetrahydro-1H-pyrazolo[4,3-c]pyridine-3-carboxamide] | 3 nM | 93 nM
CN(C)C(=O)Nc1ccc(CNC(=O)c2nc(C(F)(F)F)n3c2CN(c2ccc(-c4nccn4C)cn2)CC3)cc1 [Example 42, N-(4-(3,3-Dimethylureido)benzyl)-7-(5-(1-methyl-1H-imidazol-2-yl)pyridin-2-yl)-3-(trifluoromethyl)-5,6,7,8-tetrahydroimidazo[1,5-a]pyrazine-1-carboxamide] | 10 nM | 136 nM
CC(C)n1nc(C(=O)NCc2ccc(-c3nccc(=O)[nH]3)cc2)c2c1CCN(c1ccc(C(=O)N(C)C)cn1)C2 [Example 43, 5-(5-(Dimethylcarbamoyl)pyridin-2-yl)-1-isopropyl-N-(4-(6-oxo-1,6-dihydropyrimidin-2-yl)benzyl)-4,5,6,7-tetrahydro-1H-pyrazolo[4,3-c]pyridine-3-carboxamide] | 286 nM | 1300 nM
CC(C)n1nc(C(=O)NCc2ccc(-c3cccc(=O)[nH]3)cc2)c2c1CCN(c1ccc(C(=O)N(C)C)cn1)C2 [Example 44, 5-(5-(dimethylcarbamoyl)pyridin-2-yl)-1-isopropyl-N-(4-(6-oxo-1,6-dihydropyridin-2-yl)benzyl)-4,5,6,7-tetrahydro-1H-pyrazolo[4,3-c]pyridine-3-carboxamide] | 503 nM | 5400 nM
CC(C)n1nc(C(=O)NCc2ccc(NC(=O)N(C)C)cc2)c2c1CCN(c1ccc(-c3nccn3C)cn1)C2 [Example 45, N-(4-(3,3-Dimethylureido)benzyl)-1-isopropyl-5-(5-(1-methyl-1H-imidazol-2-yl)pyridin-2-yl)-4,5,6,7-tetrahydro-1H-pyrazolo[4,3-c]pyridine-3-carboxamide] | 4 nM | 50 nM
CN(C)C(=O)Nc1ccc(CNC(=O)c2nn(C3CC3)c3c2CN(c2ccc(-c4nccn4C)cn2)CC3)cc1 [Example 46, 1-cyclopropyl-N-(4-(3,3-dimethylureido)benzyl)-5-(5-(1-methyl-1H-imidazol-2-yl)pyridin-2-yl)-4,5,6,7-tetrahydro-1H-pyrazolo[4,3-c]pyridine-3-carboxamide] | 9 nM | 110 nM
Cc1ccn(-c2ccc(N3CCc4c(c(C(=O)NCc5ccc(NC(=O)N(C)C)cc5)nn4C(C)C)C3)nc2)n1 [Example 47, N-(4-(3,3-dimethylureido)benzyl)-1-isopropyl-5-(5-(3-methyl-1H-pyrazol-1-yl)pyridin-2-yl)-4,5,6,7-tetrahydro-1H-pyrazolo[4,3-c]pyridine-3-carboxamide] | 1180 nM | > 30000 nM

Further lines, results first:

EC50 [1] | IC50 [2] | SMILES
952 nM | 3960 nM | CNC(=O)c1ccc(CNC(=O)c2csc3c2CN(c2ccc(C(=O)N(C)C)cn2)CC3)cc1 [Example 48, 5-(5-(dimethylcarbamoyl)pyridin-2-yl)-N-(4-(methylcarbamoyl)benzyl)-4,5,6,7-tetrahydrothieno[3,2-c]pyridine-3-carboxamide]
35 nM | 151 nM | C[C@@H]1Cc2c(c(C(=O)NCc3ccc(NC(=O)N(C)C)cc3)nn2C)CN1c1ccc(C(=O)N(C)C)cn1 [Example 50, (R)-5-(5-(dimethylcarbamoyl)pyridin-2-yl)-N-(4-(3,3-dimethylureido)benzyl)-1,6-dimethyl-4,5,6,7-tetrahydro-1H-pyrazolo[4,3-c]pyridine-3-carboxamide]
4 nM | 30 nM | C[C@H]1Cc2c(c(C(=O)NCc3ccc(NC(=O)N(C)C)cc3)nn2C)CN1c1ccc(C(=O)N(C)C)cn1 [Example 51, (S)-5-(5-(dimethylcarbamoyl)pyridin-2-yl)-N-(4-(3,3-dimethylureido)benzyl)-1,6-dimethyl-4,5,6,7-tetrahydro-1H-pyrazolo[4,3-c]pyridine-3-carboxamide]
9 nM | 64 nM | CN(C)C(=O)Nc1ccc(CNC(=O)c2nc(C(C)(F)F)n3c2CN(c2ccc(C(=O)N(C)C)cn2)CC3)cc1 [Example 52, 3-(1,1-difluoroethyl)-7-(5-(dimethylcarbamoyl)pyridin-2-yl)-N-(4-(3,3-dimethylureido)benzyl)-5,6,7,8-tetrahydroimidazo[1,5-a]pyrazine-1-carboxamide]
13 nM | 369 nM | CC1CCC(=O)N1c1ccc(N2CCc3c(c(C(=O)NCc4ccc(NC(=O)N(C)C)cc4)nn3C(C)C)C2)nc1 (stereo not shown) [Example 56, N-(4-(3,3-dimethylureido)benzyl)-1-isopropyl-5-(5-(2-methyl-5-oxopyrrolidin-1-yl)pyridin-2-yl)-4,5,6,7-tetrahydro-1H-pyrazolo[4,3-c]pyridine-3-carboxamide]
32 nM | 910 nM | CC(C)n1nc(C(=O)NCc2ccc(NC(=O)N(C)C)cc2)c2c1CCN(c1ccc(N3CCN(C)C3=O)cn1)C2 [Example 60, N-(4-(3,3-dimethylureido)benzyl)-1-isopropyl-5-(5-(3-methyl-2-oxoimidazolidin-1-yl)pyridin-2-yl)-4,5,6,7-tetrahydro-1H-pyrazolo[4,3-c]pyridine-3-carboxamide]
75 nM | 2590 nM | CC1CCN(c2ccc(N3CCc4c(c(C(=O)NCc5ccc(NC(=O)N(C)C)cc5)nn4C(C)C)C3)nc2)C1=O (stereo not shown) [Example 61, N-(4-(3,3-dimethylureido)benzyl)-1-isopropyl-5-(5-(3-methyl-2-oxopyrrolidin-1-yl)pyridin-2-yl)-4,5,6,7-tetrahydro-1H-pyrazolo[4,3-c]pyridine-3-carboxamide]
4 nM | 73 nM | CC(C)n1nc(C(=O)NCc2ccc(NC(=O)N(C)C)cc2)c2c1CCN(c1ccc(-n3ccnn3)cn1)C2 [Example 64, 5-(5-(1H-1,2,3-triazol-1-yl)pyridin-2-yl)-N-(4-(3,3-dimethylureido)benzyl)-1-isopropyl-4,5,6,7-tetrahydro-1H-pyrazolo[4,3-c]pyridine-3-carboxamide]

Reference: patent US20250320213A1, “Nitrogen-Containing Heterocyclic Compounds” (Pfizer Inc., priority 2024, published 2025)
